Read-outs that look alike come from different tables or passages of the source.
Tests used:
[1] = Plasma protein binding rate, human plasma; assay type: in vitro ADME; settings: 37° C.
Method: (§1) The embodiment compound was prepared into a 1 mM solution A with DMSO.
(§2) Solution A was added to the plasma solution and prepared into a 5 μM solution B.
(§3) • 1) 200 μL of solution B was added into the membrane. • 2) 350 μL of PBS was added to the outside of the membrane. • 3) Incubating in a 37° C. water bath for 6 hours. • 4) The samples were processed for dilution and detected by mass spectrometry.
(§4) • Instrument: Shimadzu LC-20 AD; • Chromatographic column: phenomenex Gemiu® C18 (50*4.6 mm, 5 μM particle size); • Mobile phase: A: Acetonitrile, B: 0.1% formic acid solution 0-0.5 min: 5% A→90% A, 2.0-2.1 min: 90% A→5% A; flow rate: 0.8 mL/min; running time: 5.0 min; injection volume: 5 μL.
(§5) • Instrument: API4000 Liquid Chromatography-Mass Spectrometry, AB, USA; • the ion source was electrospray ionization source (ESI); • the temperature of dry gas (N2) was 500° C.; • electrospray voltage was 5500V; • the detection method was positive ion detection; • the scanning mode was selective response monitoring (MRM); the scanning time was 0.1 s.

[2] = Plasma protein binding rate, dog plasma; assay type: in vitro ADME; settings: 37° C.
Method: as §1, §2, §3, §4, §5

[3] = in vivo; settings: male, Balb/c, mouse, po, 10 mg/kg
Method: 5 g of Hydroxyethyl cellulose (HEC, CMC-Na, viscosity: 800-1200 Cps) was weighed, dissolved in 1000 mL of purified water, and 10 g of Tween 80 was added. The mixture was mixed well to form a clear solution.
The embodiment compounds were weighed and added into 4-mL glass bottles, respectively, 2.4 mL of the solution was added, and ultrasound was performed for 10 minutes to obtain a colorless clear solution with a concentration of 1 mg/mL.
Balb/C mice, males; PO, after overnight fasting, respectively, at a dose of 10 mg/kg, administered in a volume of 10 mL/kg.
Blood samples were collected before administration and 0.083 h, 0.25 h, 0.5 h, 1 h, 2 h, 4 h, 6 h and 8 h after administration, the blood was placed in EDTA-2K tube, centrifuged at 4° C. 6000 rpm for 6 min to separate plasma, and stored at −80° C.; food was consumed 4 hours after drug administration.

[4] = Plasma protein binding rate, mouse plasma; assay type: in vitro ADME; settings: 37° C.
Method: as §1, §2, §3, §4, §5

[5] = biological target: T1, CYP2C9 (Homo sapiens, UniProt P11712); experiment: CYP enzyme single point inhibition, human liver microsomes, 2C9; assay type: in vitro ADME; settings: single point method
T1 construct: from tissue; host or cells: human liver microsomes
Method: (§6) Using human liver microsomal incubation system, the inhibition of CYP450 enzyme subtypes by compounds was rapidly predicted by single point method.
(§7) 2.5 mM NADPH: 100 mM phosphate buffer was added to 4.165 mg of NADPH (reduced nicotinamide adenine dinucleotide phosphate) to 2 mL. 0.25 mg/mL microsome: 4 mL of 100 mM phosphate buffer was added to 50 μL of 20 mg/mL microsome and mixed well.
(§8) The embodiment compound to be tested was weighed and diluted to 10 mM with DMSO and then diluted to 100 μM with 100 mM phosphate buffer.
(§9) • 1. In a 96-well plate, 40 μL of liver microsomes, 10 μL of substrate, 10 μL of compound to be tested were pre-incubated for 3 min. • 2. 40 μL of NADPH was added. • 3. 300 μL of acetonitrile termination solution containing internal standard was added at 20 min. • 4. Centrifugal injection.

[6] = biological target: T2, CYP3A4 (Homo sapiens, UniProt P08684); experiment: CYP enzyme single point inhibition, human liver microsomes, 3A4; assay type: in vitro ADME; settings: single point method
T2 construct: from tissue; host or cells: human liver microsomes
Method: as §6, §7, §8, §9

[7] = Plasma protein binding rate, rat plasma; assay type: in vitro ADME; settings: 37° C.
Method: as §1, §2, §3, §4, §5

[8] = biological target: T3, CYP1A2 (Homo sapiens, UniProt P05177); experiment: CYP enzyme single point inhibition, human liver microsomes, 1A2; assay type: in vitro ADME; settings: single point method
T3 construct: from tissue; host or cells: human liver microsomes
T3 sequence (P05177 1-516): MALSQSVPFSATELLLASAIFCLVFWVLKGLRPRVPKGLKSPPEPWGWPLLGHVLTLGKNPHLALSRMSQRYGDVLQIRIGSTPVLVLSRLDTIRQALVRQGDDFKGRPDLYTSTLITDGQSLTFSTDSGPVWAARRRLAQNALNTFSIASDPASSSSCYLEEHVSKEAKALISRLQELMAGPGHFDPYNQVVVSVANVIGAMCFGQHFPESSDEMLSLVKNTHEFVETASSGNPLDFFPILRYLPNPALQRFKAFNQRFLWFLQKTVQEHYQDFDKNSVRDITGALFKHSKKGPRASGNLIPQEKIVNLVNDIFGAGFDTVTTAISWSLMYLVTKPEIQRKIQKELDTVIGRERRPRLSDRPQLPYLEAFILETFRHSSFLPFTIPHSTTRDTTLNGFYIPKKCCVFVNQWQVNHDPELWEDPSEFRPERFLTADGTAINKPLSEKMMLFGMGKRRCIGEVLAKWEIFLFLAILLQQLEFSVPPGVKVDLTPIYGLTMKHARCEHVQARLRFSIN
Method: Using human liver microsomal incubation system, the inhibition of CYP450 enzyme subtypes by compounds was rapidly predicted by single point method. 2.5 mM NADPH: 100 mM phosphate buffer was added to 4.165 mg of NADPH (reduced nicotinamide adenine dinucleotide phosphate) to 2 mL. 0.25 mg/mL microsome: 4 mL of 100 mM phosphate buffer was added to 50 μL of 20 mg/mL microsome and mixed well. The embodiment compound to be tested was weighed and diluted to 10 mM with DMSO and then diluted to 100 μM with 100 mM phosphate buffer. • 1. In a 96-well plate, 40 μL of liver microsomes, 10 μL of substrate, 10 μL of compound to be tested were pre-incubated for 3 min. • 2. 40 μL of NADPH was added. • 3. 300 μL of acetonitrile termination solution containing internal standard was added at 20 min. • 4. Centrifugal injection.

[9] = biological target: T4, CYP2C19 (Homo sapiens, UniProt P33261); experiment: CYP enzyme single point inhibition, human liver microsomes, 2C19; assay type: in vitro ADME; settings: single point method
T4 construct: from tissue; host or cells: human liver microsomes
Method: as §6, §7, §8, §9

[10] = 3A4-M, read-out: IC50 (nM) 3A4-M
[11] = 3A4-T, read-out: IC50 (nM) 3A4-T

T2 sequence (P08684 whole entry): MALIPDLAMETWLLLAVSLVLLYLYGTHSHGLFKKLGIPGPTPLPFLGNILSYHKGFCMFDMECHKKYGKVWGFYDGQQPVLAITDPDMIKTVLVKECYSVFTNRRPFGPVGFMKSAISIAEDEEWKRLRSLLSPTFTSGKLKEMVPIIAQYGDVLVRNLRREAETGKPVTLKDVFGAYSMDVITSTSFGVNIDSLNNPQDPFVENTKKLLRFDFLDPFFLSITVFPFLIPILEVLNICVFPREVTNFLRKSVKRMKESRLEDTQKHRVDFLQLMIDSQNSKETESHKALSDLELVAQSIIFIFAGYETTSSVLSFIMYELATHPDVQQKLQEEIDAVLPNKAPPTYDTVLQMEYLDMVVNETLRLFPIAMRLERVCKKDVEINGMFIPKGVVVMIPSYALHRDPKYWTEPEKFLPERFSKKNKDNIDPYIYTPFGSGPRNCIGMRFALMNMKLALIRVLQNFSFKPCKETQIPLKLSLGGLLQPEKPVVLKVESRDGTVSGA
T4 sequence (P33261 whole entry): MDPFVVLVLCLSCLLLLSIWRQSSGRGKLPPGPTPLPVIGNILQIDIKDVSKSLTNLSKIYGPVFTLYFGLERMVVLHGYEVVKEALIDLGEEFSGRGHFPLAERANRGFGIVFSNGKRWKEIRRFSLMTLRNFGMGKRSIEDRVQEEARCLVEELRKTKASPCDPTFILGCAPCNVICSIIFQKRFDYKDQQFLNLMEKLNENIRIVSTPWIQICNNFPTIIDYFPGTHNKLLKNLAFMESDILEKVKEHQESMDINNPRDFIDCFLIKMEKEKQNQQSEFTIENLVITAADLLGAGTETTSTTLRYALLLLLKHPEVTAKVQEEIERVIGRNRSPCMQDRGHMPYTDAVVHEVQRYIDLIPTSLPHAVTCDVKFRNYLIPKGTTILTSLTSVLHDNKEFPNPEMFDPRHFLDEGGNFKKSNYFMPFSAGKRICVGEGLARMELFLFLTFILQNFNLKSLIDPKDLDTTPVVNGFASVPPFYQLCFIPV
T1 sequence (P11712 whole entry): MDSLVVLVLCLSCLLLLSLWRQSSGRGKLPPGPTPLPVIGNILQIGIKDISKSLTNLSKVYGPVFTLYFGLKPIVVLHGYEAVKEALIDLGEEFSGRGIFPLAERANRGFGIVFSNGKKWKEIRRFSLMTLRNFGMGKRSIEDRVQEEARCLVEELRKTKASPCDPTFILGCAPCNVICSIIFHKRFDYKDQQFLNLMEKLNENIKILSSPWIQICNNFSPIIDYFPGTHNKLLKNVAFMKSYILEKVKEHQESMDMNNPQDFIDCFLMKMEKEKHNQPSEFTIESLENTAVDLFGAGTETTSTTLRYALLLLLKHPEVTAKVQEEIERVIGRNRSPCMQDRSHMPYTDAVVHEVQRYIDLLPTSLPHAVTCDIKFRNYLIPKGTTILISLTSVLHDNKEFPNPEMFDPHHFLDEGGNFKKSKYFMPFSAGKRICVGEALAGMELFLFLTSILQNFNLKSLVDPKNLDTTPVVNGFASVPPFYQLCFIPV

Row | SMILES | fraction unbound at 6 h, 5 μM [1] | fraction unbound at 6 h, 5 μM [2] | AUC(0-inf) [3] [ng·h/mL] | Cmax [3] [ng/mL] | MRT [3] [min] | Tmax [3] [min] | half-life [3] [min] | fraction unbound at 6 h, 5 μM [4] | IC50 [5] [nM] | IC50 [6, 10] [nM] | IC50 [6, 11] [nM] | fraction unbound at 6 h, 5 μM [7] | IC50 [8] [nM] | IC50 [9] [nM]
1 | C=CC(=O)N1C[C@H](C)N(c2nc(=O)n(-c3c(SC)ccnc3C(C)C)c3nc(-c4c(O)cccc4F)c(F)cc23)C[C@H]1C (single isomer, unassigned) [Embodiment 114-1] | 0.02 | 0.174 | 1370 | 1820 | 42 | 15 | 36 | 0.116 | 84.6 | 19 | > 100 | 0.095 | > 100 | > 100
2 | C=CC(=O)N1C[C@H](C)N(c2nc(=O)n(-c3c(SC)ccnc3C(C)C)c3nc(-c4c(N)ccc(Cl)c4F)c(Cl)cc23)C[C@H]1C (single isomer, unassigned) [Embodiment 165-1] | 0.003 | 0.013 | 347 | 264 | 90 | 15 | 60 | 0.061 | 58.8 | 4.7 | 9.1 | 0.021 | 66.7 | 28.8
3 | C=CC(=O)N1C[C@H](C)N(c2nc(=O)n(-c3c(SC)ccnc3C(C)C)c3nc(-c4c(O)cccc4F)c(Cl)cc23)C[C@H]1C (single isomer, unassigned) [Embodiment 166-1] | 0.032 | 0.075 |  |  |  |  |  | 0.037 |  |  |  | 0.046 |  | 
